10 compounds from patent US20240158446A1, “CYCLIC COMPOUND HAVING SELECTIVE INHIBITORY ACTION ON KRAS OVER HRAS AND NRAS” (CHUGAI SEIYAKU KABUSHIKI KAISHA, priority 2021, published 2024) can be followed below.

Experiment [1] concerns the target GDP-bound KRAS wild-type protein (Homo sapiens, UniProt P01116). Put plainly: Binding to KRAS by surface plasmon resonance (SPR), Single Cycle Kinetics. As to conditions: SPR Single Cycle Kinetics, GDP-bound KRAS wild-type protein, 1:1 binding model; read-out: KRAS KD.
Experiment [2] concerns the target GDP-bound NRAS wild-type protein (Homo sapiens, UniProt P01111). Nature of the experiment: Binding to NRAS by surface plasmon resonance (SPR), Single Cycle Kinetics. The note with it: SPR KD ratio NRAS/KRAS, class symbols. Background: SPR reads the build-up and loss of mass on a sensor chip optically.
Experiment [3] deals with GDP-bound HRAS wild-type protein (Homo sapiens, UniProt P01112). Nature of the experiment: Binding to HRAS by surface plasmon resonance (SPR), Single Cycle Kinetics. The note with it: SPR KD ratio HRAS/KRAS, class symbols.
The test system of experiment [4] is human lung cancer strain NCI-H441.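 Note: cell proliferation inhibition after four days measured by CellTiter-Glo.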

By Kd is commonly meant the concentration at which binding is half-saturated. The term IC50 denotes the point on the concentration scale where inhibition reaches its midpoint. Read a low IC50 as higher potency.

GDP-bound NRAS wild-type protein, sequence (P01111 whole entry): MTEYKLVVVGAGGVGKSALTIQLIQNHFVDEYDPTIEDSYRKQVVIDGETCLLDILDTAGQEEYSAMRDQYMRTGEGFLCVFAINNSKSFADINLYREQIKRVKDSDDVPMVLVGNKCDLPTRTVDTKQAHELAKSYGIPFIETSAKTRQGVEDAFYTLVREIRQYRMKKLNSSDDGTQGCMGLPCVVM
GDP-bound KRAS wild-type protein, sequence (P01116 whole entry): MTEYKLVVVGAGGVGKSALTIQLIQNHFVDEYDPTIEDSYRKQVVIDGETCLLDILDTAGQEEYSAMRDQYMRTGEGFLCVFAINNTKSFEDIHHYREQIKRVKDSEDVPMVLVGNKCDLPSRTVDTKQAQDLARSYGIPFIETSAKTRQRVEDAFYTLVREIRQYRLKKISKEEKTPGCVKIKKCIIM
GDP-bound HRAS wild-type protein, sequence (P01112 whole entry): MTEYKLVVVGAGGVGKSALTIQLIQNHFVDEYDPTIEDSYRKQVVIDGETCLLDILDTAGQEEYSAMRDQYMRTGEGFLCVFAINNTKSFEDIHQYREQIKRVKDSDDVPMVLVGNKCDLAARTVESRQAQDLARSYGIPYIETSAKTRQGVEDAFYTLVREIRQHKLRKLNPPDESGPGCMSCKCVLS

`CCC[C@H]1C(=O)N[C@@H](CC(C)C)C(=O)N2C[C@@H](OC)C[C@H]2C(=O)N(C)[C@H]2C/C=C\CCN(C2=O)[C@@H](Cc2ccc(C)cc2)C(=O)N(C)CC(=O)N[C@@H](CCc2ccc(C(F)(F)F)c(Cl)c2)C(=O)N2C[C@H](OCC)C[C@H]2C(=O)NC2(CC(C)(C)C2)C(=O)N(C)[C@@H](C2CCCC2)C(=O)N(C)[C@H](C(=O)N(C)C)CC(=O)N1C` [PP2555]: the Kd in experiment [1] is 4.1 nM. Besides, in experiment [2], the “NRAS/KRAS (ratio of KD value with respect to GDP-bound NRAS wild-type protein to KD value with respect to KRAS)” value was “A (a compound having 10 or more and less than 20 is denoted as A)”. The “HRAS/KRAS (ratio of KD value with respect to GDP-bound HRAS wild-type protein to KD value with respect to KRAS)” value in experiment [3] was “B (a compound having 3 or more and less than 10 is denoted as B)”. For the same compound, in experiment [4], the IC50 was 212 nM.
`CCC[C@H]1C(=O)N[C@@H]([C@@H](C)CC)C(=O)N2C[C@@H](OC)C[C@H]2C(=O)N(C)[C@H]2C/C=C\CCN(C2=O)[C@@H](Cc2ccc(C)cc2)C(=O)N(C)CC(=O)N[C@@H](CCc2cc(F)c(C(F)(F)F)c(F)c2)C(=O)N2C[C@H](OCC)C[C@H]2C(=O)NC2(CC(C)(C)C2)C(=O)N(C)[C@@H](C2CCCC2)C(=O)N(C)[C@H](C(=O)N(C)C)CC(=O)N1C` [PP2556]: the equilibrium dissociation constant (Kd) in experiment [1] turned out to be 0.21 nM. Besides, the “NRAS/KRAS (ratio of KD value with respect to GDP-bound NRAS wild-type protein to KD value with respect to KRAS)” value in experiment [2] was “A (a compound having 10 or more and less than 20 is denoted as A)”. For the same compound, the “HRAS/KRAS (ratio of KD value with respect to GDP-bound HRAS wild-type protein to KD value with respect to KRAS)” value in experiment [3] is “B (a compound having 3 or more and less than 10 is denoted as B)”. Moreover, 9.4 nM corresponded to half-maximal inhibition in experiment [4] (IC50).
Regarding `CCC[C@H]1C(=O)N[C@@H]([C@@H](C)CC)C(=O)N2C[C@@H](OC)C[C@H]2C(=O)N(C)[C@H]2C/C=C\CCN(C2=O)[C@@H](Cc2ccc(C)cc2)C(=O)N(C)CC(=O)N[C@@H](CCc2ccc(C(F)(F)F)c(OC)c2)C(=O)N2C[C@H](OCC)C[C@H]2C(=O)NC2(CC(C)(C)C2)C(=O)N(C)[C@@H](C2CCCC2)C(=O)N(C)[C@H](C(=O)N(C)C)CC(=O)N1C` [PP2557], the equilibrium dissociation constant (Kd) in experiment [1] was found to be 0.3 nM. Besides, in experiment [2], the “NRAS/KRAS (ratio of KD value with respect to GDP-bound NRAS wild-type protein to KD value with respect to KRAS)” value was “A (a compound having 10 or more and less than 20 is denoted as A)”. Further, in experiment [3], the “HRAS/KRAS (ratio of KD value with respect to GDP-bound HRAS wild-type protein to KD value with respect to KRAS)” value was “B (a compound having 3 or more and less than 10 is denoted as B)”. Moreover, in experiment [4], 14.2 nM corresponded to half-maximal inhibition (IC50).
`CCC[C@H]1C(=O)N[C@@H]([C@@H](C)CC)C(=O)N(C2CC2)CC(=O)N(C)[C@H]2C/C=C\CCN(C2=O)[C@@H](Cc2ccc(C)cc2)C(=O)N(C)CC(=O)N[C@@H](CCc2ccc(Cl)c(Cl)c2)C(=O)N2C[C@H](OCC)C[C@H]2C(=O)NC2(CC(C)(C)C2)C(=O)N(C)[C@@H](C2CCCC2)C(=O)N(C)[C@H](C(=O)N(C)C)CC(=O)N1C` [PP2559]: the Kd in experiment [1] was 0.91 nM. Besides, the “NRAS/KRAS (ratio of KD value with respect to GDP-bound NRAS wild-type protein to KD value with respect to KRAS)” value in experiment [2] was “A (a compound having 10 or more and less than 20 is denoted as A)”. For the same compound, in experiment [3], the “HRAS/KRAS (ratio of KD value with respect to GDP-bound HRAS wild-type protein to KD value with respect to KRAS)” value is “A (a compound having 10 or more and less than 20 is denoted as A)”. In experiment [4], this compound yielded a 50% inhibitory concentration (IC50) of 103 nM.
Consider `CCC[C@H]1C(=O)N[C@@H]([C@@H](C)CC)C(=O)N(C2CC2)CC(=O)N(C)[C@H]2C/C=C\CCN(C2=O)[C@@H](Cc2ccc(C)cc2)C(=O)N(C)CC(=O)N[C@@H](CCc2cc(F)c(C(F)(F)F)c(F)c2)C(=O)N2C[C@H](OCC)C[C@H]2C(=O)NC2(CC(C)(C)C2)C(=O)N(C)[C@@H](C(CC)CC)C(=O)N(C)[C@H](C(=O)N(C)C)CC(=O)N1C` [PP2560], for which the dissociation constant (Kd) in experiment [1] was found to be 1 nM. For the same compound, in experiment [2], the “NRAS/KRAS (ratio of KD value with respect to GDP-bound NRAS wild-type protein to KD value with respect to KRAS)” value is “AA (a compound having 20 or more is denoted as AA)”. Further, the “HRAS/KRAS (ratio of KD value with respect to GDP-bound HRAS wild-type protein to KD value with respect to KRAS)” value in experiment [3] was “A (a compound having 10 or more and less than 20 is denoted as A)”. The compound also registered an IC50 in experiment [4] of 46.3 nM.
Consider `CCC[C@H]1C(=O)N[C@@H]([C@@H](C)CC)C(=O)N(C2CC2)CC(=O)N(C)[C@H]2C/C=C\CCN(C2=O)[C@@H](Cc2ccc(C)cc2)C(=O)N(C)CC(=O)N[C@@H](CCc2ccc(Cl)c(Cl)c2)C(=O)N2C[C@H](OCC)C[C@H]2C(=O)NC2(CC(C)(C)C2)C(=O)N(C)[C@@H](C(CC)CC)C(=O)N(C)[C@H](C(=O)N(C)C)CC(=O)N1C` [PP2561], for which, in experiment [1], the equilibrium dissociation constant (Kd) amounted to 1.9 nM. In addition, the “NRAS/KRAS (ratio of KD value with respect to GDP-bound NRAS wild-type protein to KD value with respect to KRAS)” value in experiment [2] was “AA (a compound having 20 or more is denoted as AA)”. Also, the “HRAS/KRAS (ratio of KD value with respect to GDP-bound HRAS wild-type protein to KD value with respect to KRAS)” value in experiment [3] was “A (a compound having 10 or more and less than 20 is denoted as A)”. The IC50 in experiment [4] amounted to 96.4 nM.
In the case of `CCO[C@@H]1C[C@H]2C(=O)NC3(CC(C)(C)C3)C(=O)N(C)[C@@H](C3CCCC3)C(=O)N(C)[C@H](C(=O)N(C)C)CC(=O)N(C)[C@@H](COC)C(=O)N[C@@H]([C@@H](C)CC)C(=O)N(C3CC3)CC(=O)N(C)[C@H]3C/C=C\CCN(C3=O)[C@@H](CC3CCCCC3)C(=O)N(C)CC(=O)N[C@@H](CCc3cc(F)c(C(F)(F)F)c(F)c3)C(=O)N2C1` [PP2562], in experiment [1], the equilibrium dissociation constant (Kd) was determined as 0.91 nM. In experiment [2], the “NRAS/KRAS (ratio of KD value with respect to GDP-bound NRAS wild-type protein to KD value with respect to KRAS)” value was “B (a compound having 3 or more and less than 10 is denoted as B)”. For the same compound, the “HRAS/KRAS (ratio of KD value with respect to GDP-bound HRAS wild-type protein to KD value with respect to KRAS)” value in experiment [3] is “B (a compound having 3 or more and less than 10 is denoted as B)”. The compound further returned an IC50 in experiment [4] of 46.5 nM.
As to `CCO[C@@H]1C[C@H]2C(=O)NC3(CC(C)(C)C3)C(=O)N(C)[C@@H](C3CCCC3)C(=O)N(C)[C@H](C(=O)N(C)C)CC(=O)N(C)[C@@H](COC)C(=O)N[C@@H]([C@@H](C)CC)C(=O)N(C3CC3)CC(=O)N(C)[C@H]3C/C=C\CCN(C3=O)[C@@H](CC3CCCCC3)C(=O)N(C)CC(=O)N[C@@H](CCc3ccc(Cl)c(Cl)c3)C(=O)N2C1` [PP2563], in experiment [1], the Kd came to 2.3 nM. The “NRAS/KRAS (ratio of KD value with respect to GDP-bound NRAS wild-type protein to KD value with respect to KRAS)” value in experiment [2] was “A (a compound having 10 or more and less than 20 is denoted as A)”. Besides, the “HRAS/KRAS (ratio of KD value with respect to GDP-bound HRAS wild-type protein to KD value with respect to KRAS)” value in experiment [3] is “A (a compound having 10 or more and less than 20 is denoted as A)”. In experiment [4], the IC50 was found to be 108 nM.
For `CCO[C@@H]1C[C@H]2C(=O)NC3(CC(C)(C)C3)C(=O)N(C)[C@@H](C(CC)CC)C(=O)N(C)[C@H](C(=O)N(C)C)CC(=O)N(C)[C@@H](COC)C(=O)N[C@@H]([C@@H](C)CC)C(=O)N(C3CC3)CC(=O)N(C)[C@H]3C/C=C\CCN(C3=O)[C@@H](CC3CCCCC3)C(=O)N(C)CC(=O)N[C@@H](CCc3cc(F)c(C(F)(F)F)c(F)c3)C(=O)N2C1` [PP2564], the dissociation constant (Kd) in experiment [1] came to 7.6 nM. In addition, the “NRAS/KRAS (ratio of KD value with respect to GDP-bound NRAS wild-type protein to KD value with respect to KRAS)” value in experiment [2] was “A (a compound having 10 or more and less than 20 is denoted as A)”. Besides, the “HRAS/KRAS (ratio of KD value with respect to GDP-bound HRAS wild-type protein to KD value with respect to KRAS)” value in experiment [3] is “A (a compound having 10 or more and less than 20 is denoted as A)”. The compound further gave an IC50 in experiment [4] of 222 nM.
For `CCC[C@H]1C(=O)N[C@@H]([C@@H](C)CC)C(=O)N(C2CC2)CC(=O)N(C)[C@H]2C/C=C\CCN(C2=O)[C@@H](CC2CCC(F)(F)CC2)C(=O)N(C)CC(=O)N[C@@H](CCc2cc(F)c(C(F)(F)F)c(F)c2)C(=O)N2C[C@H](OCC)C[C@H]2C(=O)NC2(CC(C)(C)C2)C(=O)N(C)[C@@H](C2CCCC2)C(=O)N(C)[C@H](C(=O)N(C)C)CC(=O)N1C` [PP2566], in experiment [1], the Kd came to 0.57 nM. Besides, the “NRAS/KRAS (ratio of KD value with respect to GDP-bound NRAS wild-type protein to KD value with respect to KRAS)” value in experiment [2] was “A (a compound having 10 or more and less than 20 is denoted as A)”. Also, in experiment [3], the “HRAS/KRAS (ratio of KD value with respect to GDP-bound HRAS wild-type protein to KD value with respect to KRAS)” value is “B (a compound having 3 or more and less than 10 is denoted as B)”. This compound also displayed a half-maximal inhibitory concentration (IC50) in experiment [4] of 17.6 nM.
